Results reported in PubChem BioAssay AID1963834 (Molecular Pharmacology Branch, DTP, NCI, 2024).

Test system: 873145-292-R-J1-PDC complex spheroid viability
Experiment: Anticancer human tumor 873145-292-R-J1-PDC patient-derived renal clear cell carcinoma cell line growth inhibition [POLQ]
Conditions: for IC50: curve of first compound; for viability, T/C: stronger effect = lower value
Procedure, shortened: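 Complex spheroid viability model combining PDC tumour cells with endothelial (HUVEC) and MSC stromal cells. Novobiocin, ART-558 or RP6685 were tested singly and in combination with standard and investigational anticancer drugs. Each was titrated in half-log steps from near clinical Cmax, or from 10 microM where Cmax was unknown.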

[1] = second compound 0.0316 µM, first compound 0.0316 µM
[2] = second compound 0.0316 µM, first compound 0.1 µM
[3] = second compound 0.0316 µM, first compound 0.316 µM
[4] = second compound 0.0316 µM, first compound 1 µM
[5] = second compound 0.0316 µM, first compound 3.16 µM
[6] = second compound 0.0316 µM, first compound 10 µM
[7] = second compound 0.1 µM, first compound 0.0316 µM
[8] = second compound 0.1 µM, first compound 0.1 µM
[9] = second compound 0.1 µM, first compound 0.316 µM
[10] = second compound 0.1 µM, first compound 1 µM
[11] = second compound 0.1 µM, first compound 3.16 µM
[12] = second compound 0.1 µM, first compound 10 µM
[13] = second compound 0.316 µM, first compound 0.0316 µM
[14] = second compound 0.316 µM, first compound 0.1 µM
[15] = second compound 0.316 µM, first compound 0.316 µM
[16] = second compound 0.316 µM, first compound 1 µM
[17] = second compound 0.316 µM, first compound 3.16 µM
[18] = second compound 0.316 µM, first compound 10 µM
[19] = second compound 1 µM, first compound 0.0316 µM
[20] = second compound 1 µM, first compound 0.1 µM
[21] = second compound 1 µM, first compound 0.316 µM
[22] = second compound 1 µM, first compound 1 µM
[23] = second compound 1 µM, first compound 3.16 µM
[24] = second compound 1 µM, first compound 10 µM
[25] = second compound 3.16 µM, first compound 0.0316 µM
[26] = second compound 3.16 µM, first compound 0.1 µM
[27] = second compound 3.16 µM, first compound 0.316 µM
[28] = second compound 3.16 µM, first compound 1 µM
[29] = second compound 3.16 µM, first compound 3.16 µM
[30] = second compound 3.16 µM, first compound 10 µM
[31] = second compound 10 µM, first compound 0.0316 µM
[32] = second compound 10 µM, first compound 0.1 µM
[33] = second compound 10 µM, first compound 0.316 µM
[34] = second compound 10 µM, first compound 1 µM
[35] = second compound 10 µM, first compound 3.16 µM
[36] = second compound 10 µM, first compound 10 µM
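Further: spheroids exposed to compounds for 7 days before viability readout.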
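Wherever viability, T/C is given: luminescence signal used as surrogate for viable cell content; 100% = DMSO vehicle control viability.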

SMILES: C=CC(=O)N1CCN(c2nc(=O)n(-c3c(C)ccnc3C(C)C)c3nc(-c4c(O)cccc4F)c(F)cc23)C(C)C1 (stereo not given) + Cc1cccc(N(C)C(=O)C2C(O)CCN2c2nc(C)cc(C(F)(F)F)c2C#N)c1
- IC50 (second compound 0.0316 µM): > 10 µM
- IC50 (second compound 0.1 µM): > 10 µM
- IC50 (second compound 0.316 µM): > 10 µM
- IC50 (second compound 1 µM): > 10 µM
- IC50 (second compound 3.16 µM): > 10 µM
- IC50 (second compound 10 µM): > 10 µM
- viability, T/C [1]: 103%
- viability, T/C [2]: 108%
- viability, T/C [3]: 107%
- viability, T/C [4]: 120%
- viability, T/C [5]: 141%
- viability, T/C [6]: 138%
- viability, T/C [7]: 104%
- viability, T/C [8]: 110%
- viability, T/C [9]: 115%
- viability, T/C [10]: 133%
- viability, T/C [11]: 128%
- viability, T/C [12]: 126%
- viability, T/C [13]: 108%
- viability, T/C [14]: 111%
- viability, T/C [15]: 119%
- viability, T/C [16]: 123%
- viability, T/C [17]: 143%
- viability, T/C [18]: 125%
- viability, T/C [19]: 114%
- viability, T/C [20]: 100%
- viability, T/C [21]: 111%
- viability, T/C [22]: 123%
- viability, T/C [23]: 144%
- viability, T/C [24]: 117%
- viability, T/C [25]: 105%
- viability, T/C [26]: 110%
- viability, T/C [27]: 106%
- viability, T/C [28]: 111%
- viability, T/C [29]: 136%
- viability, T/C [30]: 124%
- viability, T/C [31]: 110%
- viability, T/C [32]: 101%
- viability, T/C [33]: 103%
- viability, T/C [34]: 111%
- viability, T/C [35]: 120%
- viability, T/C [36]: 128%

SMILES: CC(C)n1c(=O)n(C)c2cnc3cc(F)c(-c4ccc(OCCCN5CCCCC5)nc4)cc3c21 + Cc1cccc(N(C)C(=O)C2C(O)CCN2c2nc(C)cc(C(F)(F)F)c2C#N)c1
- IC50 (second compound 0.0316 µM): > 10 µM
- IC50 (second compound 0.1 µM): > 10 µM
- IC50 (second compound 0.316 µM): > 10 µM
- IC50 (second compound 1 µM): > 10 µM
- IC50 (second compound 3.16 µM): > 10 µM
- IC50 (second compound 10 µM): > 10 µM
- viability, T/C [1]: 84.6%
- viability, T/C [2]: 102%
- viability, T/C [3]: 96.9%
- viability, T/C [4]: 100%
- viability, T/C [5]: 89.2%
- viability, T/C [6]: 78.1%
- viability, T/C [7]: 94.7%
- viability, T/C [8]: 103%
- viability, T/C [9]: 100%
- viability, T/C [10]: 90.4%
- viability, T/C [11]: 85.9%
- viability, T/C [12]: 76.4%
- viability, T/C [13]: 105%
- viability, T/C [14]: 99%
- viability, T/C [15]: 79.7%
- viability, T/C [16]: 99.8%
- viability, T/C [17]: 98.8%
- viability, T/C [18]: 73.3%
- viability, T/C [19]: 106%
- viability, T/C [20]: 106%
- viability, T/C [21]: 102%
- viability, T/C [22]: 91.8%
- viability, T/C [23]: 89.2%
- viability, T/C [24]: 72.4%
- viability, T/C [25]: 91%
- viability, T/C [26]: 91.8%
- viability, T/C [27]: 114%
- viability, T/C [28]: 101%
- viability, T/C [29]: 107%
- viability, T/C [30]: 69.4%
- viability, T/C [31]: 88.8%
- viability, T/C [32]: 98.6%
- viability, T/C [33]: 104%
- viability, T/C [34]: 90.2%
- viability, T/C [35]: 87.8%
- viability, T/C [36]: 66.4%

SMILES: CCc1cc2c(N3CCc4c(cc(Cn5ccnc5)cc4-c4cn(C)nc4C(F)(F)F)C3=O)ccnc2c(OC)n1 + Cc1cccc(N(C)C(=O)C2C(O)CCN2c2nc(C)cc(C(F)(F)F)c2C#N)c1
- IC50 (second compound 0.0316 µM): > 10 µM
- IC50 (second compound 0.1 µM): > 10 µM
- IC50 (second compound 0.316 µM): > 10 µM
- IC50 (second compound 1 µM): > 10 µM
- IC50 (second compound 3.16 µM): > 10 µM
- IC50 (second compound 10 µM): > 10 µM
- viability, T/C [1]: 92.1%
- viability, T/C [2]: 114%
- viability, T/C [3]: 100%
- viability, T/C [4]: 94.6%
- viability, T/C [5]: 88%
- viability, T/C [6]: 83.2%
- viability, T/C [7]: 99.6%
- viability, T/C [8]: 118%
- viability, T/C [9]: 88.9%
- viability, T/C [10]: 95%
- viability, T/C [11]: 91.6%
- viability, T/C [12]: 78.4%
- viability, T/C [13]: 105%
- viability, T/C [14]: 101%
- viability, T/C [15]: 82.2%
- viability, T/C [16]: 94.6%
- viability, T/C [17]: 94.6%
- viability, T/C [18]: 83.7%
- viability, T/C [19]: 90.5%
- viability, T/C [20]: 87.3%
- viability, T/C [21]: 91.7%
- viability, T/C [22]: 93.4%
- viability, T/C [23]: 89.7%
- viability, T/C [24]: 78%
- viability, T/C [25]: 88.2%
- viability, T/C [26]: 104%
- viability, T/C [27]: 85%
- viability, T/C [28]: 91.3%
- viability, T/C [29]: 80.1%
- viability, T/C [30]: 90.1%
- viability, T/C [31]: 90.1%
- viability, T/C [32]: 97.3%
- viability, T/C [33]: 85.3%
- viability, T/C [34]: 84.5%
- viability, T/C [35]: 81.2%
- viability, T/C [36]: 90.3%

SMILES: COc1cc2cc(C(=O)CCC(=O)O)sc2cc1OC + Cc1cccc(N(C)C(=O)C2C(O)CCN2c2nc(C)cc(C(F)(F)F)c2C#N)c1
- IC50 (second compound 0.0316 µM): > 10 µM
- IC50 (second compound 0.1 µM): > 10 µM
- IC50 (second compound 0.316 µM): > 10 µM
- IC50 (second compound 1 µM): > 10 µM
- IC50 (second compound 3.16 µM): > 10 µM
- IC50 (second compound 10 µM): > 10 µM
- viability, T/C [1]: 103%
- viability, T/C [2]: 106%
- viability, T/C [3]: 111%
- viability, T/C [4]: 105%
- viability, T/C [5]: 101%
- viability, T/C [6]: 104%
- viability, T/C [7]: 97.9%
- viability, T/C [8]: 115%
- viability, T/C [9]: 96.9%
- viability, T/C [10]: 92.1%
- viability, T/C [11]: 98.8%
- viability, T/C [12]: 107%
- viability, T/C [13]: 98.3%
- viability, T/C [14]: 110%
- viability, T/C [15]: 95.1%
- viability, T/C [16]: 96.1%
- viability, T/C [17]: 93.5%
- viability, T/C [18]: 97.6%
- viability, T/C [19]: 101%
- viability, T/C [20]: 98.7%
- viability, T/C [21]: 94%
- viability, T/C [22]: 100%
- viability, T/C [23]: 95.6%
- viability, T/C [24]: 103%
- viability, T/C [25]: 89%
- viability, T/C [26]: 117%
- viability, T/C [27]: 102%
- viability, T/C [28]: 99.4%
- viability, T/C [29]: 98.4%
- viability, T/C [30]: 101%
- viability, T/C [31]: 98.2%
- viability, T/C [32]: 95.9%
- viability, T/C [33]: 102%
- viability, T/C [34]: 97.7%
- viability, T/C [35]: 104%
- viability, T/C [36]: 103%

SMILES: COc1ccc([C@@H](O)c2cc(-c3ncnc4cc(N5CCOCC5)ccc34)c(F)cc2Cl)nn1 + Cc1cccc(N(C)C(=O)C2C(O)CCN2c2nc(C)cc(C(F)(F)F)c2C#N)c1
- IC50 (second compound 0.0316 µM): 5.23 µM
- IC50 (second compound 0.1 µM): 7.85 µM
- IC50 (second compound 0.316 µM): 4.08 µM
- IC50 (second compound 1 µM): 6.45 µM
- IC50 (second compound 3.16 µM): 4.83 µM
- IC50 (second compound 10 µM): 5.89 µM
- viability, T/C [1]: 107%
- viability, T/C [2]: 92.1%
- viability, T/C [3]: 81.5%
- viability, T/C [4]: 66.6%
- viability, T/C [5]: 56.9%
- viability, T/C [6]: 42.5%
- viability, T/C [7]: 105%
- viability, T/C [8]: 95.3%
- viability, T/C [9]: 75.9%
- viability, T/C [10]: 73.1%
- viability, T/C [11]: 64.7%
- viability, T/C [12]: 44.4%
- viability, T/C [13]: 96%
- viability, T/C [14]: 88.5%
- viability, T/C [15]: 76.3%
- viability, T/C [16]: 65.2%
- viability, T/C [17]: 55.8%
- viability, T/C [18]: 37.5%
- viability, T/C [19]: 112%
- viability, T/C [20]: 88.2%
- viability, T/C [21]: 85.6%
- viability, T/C [22]: 72.5%
- viability, T/C [23]: 56.1%
- viability, T/C [24]: 45%
- viability, T/C [25]: 93.5%
- viability, T/C [26]: 85.1%
- viability, T/C [27]: 91%
- viability, T/C [28]: 71.6%
- viability, T/C [29]: 57.4%
- viability, T/C [30]: 39.2%
- viability, T/C [31]: 96.8%
- viability, T/C [32]: 82.1%
- viability, T/C [33]: 80.2%
- viability, T/C [34]: 71.2%
- viability, T/C [35]: 58.1%
- viability, T/C [36]: 42.4%
